This passage reports IC50 results from patent US12421253B2 (Mirati Therapeutics, Inc., priority 2020, dated 2025).

pIC50: −log10 of the molar value.

One assay has as its target T1, KRas^G12R (Homo sapiens, UniProt P01116, G12R).
T1 construct: […]; biotin (biotinylated); purchased Accelegan Inc
In words: KRas binding assay (TR-FRET displacement of Cy5 labelled tracer).

The target in another assay is T2, KRas^G12D (Homo sapiens, UniProt P01116, G12D).
T2 construct: […]; biotin (biotinylated); purchased Accelegan Inc
Described as above.

For another assay, the target named is T3, KRas^G12V (Homo sapiens, UniProt P01116, G12V).
T3 construct: […]; biotin (biotinylated); purchased Accelegan Inc
The assay is described as above.

The test system of a further assay is HCT116 cells, pERK. The assay can be described thus: Inhibition of KRas phosphorylation of ERK (Cisbio HTRF Advanced pERK assay). To be noted: Homo sapiens, HCT-116, 3 hrs, read-out: Inhibition (HTRF IC50 nM) of KRas-mediated Phosphorylation of ERK, HCT116. It is filed as cell-based. The method in brief: (§1)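 Compound effect on ERK phosphorylation is measured after 3 h exposure of cells, seeded the previous day in RPMI with 10% FBS, to ten 3-fold dilutions starting at 10 uM. Lysates are probed by HTRF for pERK, with trametinib at 0.2 uM defining the minimum signal.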

In a further assay the test system is ASPC1 cells, pERK. The description is as above. The assay is classed as cell-based. To be noted: Homo sapiens, ASPC1, 3 h, AsPC-1 cells, read-out: Inhibition (HTRF IC50 nM) of KRas-mediated Phosphorylation of ERK, AsPC-1. The method in brief: as §1
For the next assay, the system named is H727 cells, pERK. The assay is described as above. It is filed as cell-based. As to conditions: Homo sapiens, NCI-H727, 3 h, read-out: Inhibition (HTRF IC50 nM) of KRas-mediated Phosphorylation of ERK, H727. An outline of the steps:
as §1
A general note: In TR-FRET formats the signal depends on donor and acceptor labels being close together.

The subject of the next assay is MKN1 cells, pERK. Described as above. The assay is classed as cell-based. To be noted: Homo sapiens, MKN-1, 3 h, read-out: Inhibition (HTRF IC50 nM) of KRas-mediated Phosphorylation of ERK, MKN1. An outline of the steps:
as §1

Another assay deals with PSN1 cells, pERK. The assay is described as above. It is filed as cell-based. To be noted: Homo sapiens, PSN1, 3 h, read-out: Inhibition (HTRF IC50 nM) of KRas-mediated Phosphorylation of ERK, PSN1. The method in brief: as §1
In another assay the test system is H460 cells, pERK. Described as above. The assay is classed as cell-based. As to conditions: Homo sapiens, NCI-H460, 3 hrs, read-out: Inhibition (HTRF IC50 nM) of KRas-mediated Phosphorylation of ERK, H460. The method in brief: as §1

T1 sequence (P01116 1-169 isoform P01116-2 G12R): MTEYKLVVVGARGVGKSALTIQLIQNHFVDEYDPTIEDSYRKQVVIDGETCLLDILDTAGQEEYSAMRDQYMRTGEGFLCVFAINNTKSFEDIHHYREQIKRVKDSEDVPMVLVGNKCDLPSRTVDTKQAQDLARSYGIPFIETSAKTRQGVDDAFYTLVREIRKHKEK
T3 sequence (P01116 1-169 isoform P01116-2 G12V): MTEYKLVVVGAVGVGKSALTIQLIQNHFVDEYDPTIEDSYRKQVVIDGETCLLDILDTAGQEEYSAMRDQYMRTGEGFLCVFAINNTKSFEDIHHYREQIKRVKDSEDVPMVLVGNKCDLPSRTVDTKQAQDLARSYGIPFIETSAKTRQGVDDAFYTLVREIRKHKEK
T2 sequence (P01116 1-169 isoform P01116-2 G12D): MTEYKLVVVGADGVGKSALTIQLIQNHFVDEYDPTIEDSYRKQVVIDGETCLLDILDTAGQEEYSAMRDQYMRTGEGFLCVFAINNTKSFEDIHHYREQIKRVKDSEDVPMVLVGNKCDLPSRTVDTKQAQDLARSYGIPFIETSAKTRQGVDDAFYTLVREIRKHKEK
Procedure for KRas^G12D: (§2) The ability of a compound to bind to KRas was measured using a TR-FRET displacement assay. […] After a 60-minute incubation at room temperature, the reaction was measured using a BMG LABTECH CLARIO star Plus via TR-FRET. […] The POC values were fit to a 4-parameter IC50 equation and the IC50 value reported.
Procedure for KRas^G12R: as §2
Procedure for KRas^G12V: as §2

For orientation: pIC50 means the negative decadic logarithm of the IC50, by convention in mol/L. As usually defined, the IC50 is the concentration at which inhibition is half-maximal. For the compound `CCc1c(F)ccc2cc(O)cc(N3CCc4c(nc(OC[C@@]56CCCN5C[C@H](F)C6)nc4N4CCCC5(CC(O)C5)C4)C3)c12` (stereo partly drawn) [Example 60, 6-(7-(8-ethyl-7-fluoro-3-hydroxynaphthalen-1-yl)-2-(((2R,7aS)-2-fluorohexahydro-1H-pyrrolizin-7a-yl)methoxy)-5,6,7,8-tetrahydropyrido[3,4-d]pyrimidin-4-yl)-6-azaspiro[3.5]nonan-2-ol], the pIC50 on KRas^G12R, at KRas^G12D and at KRas^G12V was at least 8.70 in each case. Also, the IC50 in the assay with HCT116 cells, pERK was 1120 nM; with ASPC1 cells, pERK, 556 nM; in the assay on H727 cells, pERK, 258 nM; in the assay on MKN1 cells, pERK, 29 nM; with PSN1 cells, pERK, 6610 nM.

On to `CCc1c(F)ccc2cc(O)cc(N3CCc4c(nc(OC[C@@]56CCCN5C[C@H](F)C6)nc4N4CCCC5(CNS(=O)(=O)N5)C4)C3)c12` (stereo partly drawn) [Example 61, 7-(7-(8-ethyl-7-fluoro-3-hydroxynaphthalen-1-yl)-2-(((2R,7aS)-2-fluorohexahydro-1H-pyrrolizin-7a-yl)methoxy)-5,6,7,8-tetrahydropyrido[3,4-d]pyrimidin-4-yl)-2-thia-1,3,7-triazaspiro[4.5]decane 2,2-dioxide], for which the pIC50 at KRas^G12R is 8.05; on KRas^G12D it was 8.40; at KRas^G12V, 8.40. For the same compound, the IC50 in the assay with HCT116 cells, pERK amounted to 2380 nM; in the assay on ASPC1 cells, pERK it was 211 nM; with H727 cells, pERK, 1200 nM; with MKN1 cells, pERK it was 51 nM; in the assay with PSN1 cells, pERK it was 3650 nM.

Regarding `CCc1c(F)ccc2cc(O)cc(N3CCc4c(nc(OC[C@@]56CCCN5C[C@H](F)C6)nc4N4CC5CC(O)C(C5)C4)C3)c12` (stereo partly drawn) [Example 63, 3-(7-(8-ethyl-7-fluoro-3-hydroxynaphthalen-1-yl)-2-(((2R,7aS)-2-fluorohexahydro-1H-pyrrolizin-7a-yl)methoxy)-5,6,7,8-tetrahydropyrido[3,4-d]pyrimidin-4-yl)-3-azabicyclo[3.2.1]octan-6-ol], the pIC50 on KRas^G12R was at least 8.70; at KRas^G12D, 8.10; at KRas^G12V it was at least 8.70. The IC50 in the assay on HCT116 cells, pERK turned out to be 1170 nM; with ASPC1 cells, pERK it was 457 nM; in the assay on H727 cells, pERK, 608 nM; with MKN1 cells, pERK, 33 nM; in the assay with PSN1 cells, pERK, 6960 nM.

Regarding `CCc1c(F)ccc2cc(O)cc(N3CCc4c(nc(OC[C@@]56CCCN5C[C@H](F)C6)nc4N4CCCC5(CNC5=O)C4)C3)c12` (stereo partly drawn) [Example 64, 6-(7-(8-ethyl-7-fluoro-3-hydroxynaphthalen-1-yl)-2-(((2R,7aS)-2-fluorohexahydro-1H-pyrrolizin-7a-yl)methoxy)-5,6,7,8-tetrahydropyrido[3,4-d]pyrimidin-4-yl)-2,6-diazaspiro[3.5]nonan-1-one], the pIC50 on KRas^G12R, at KRas^G12D and on KRas^G12V was at least 8.70 each time. The IC50 amounted to 891 nM in the assay with HCT116 cells, pERK; 595 nM with ASPC1 cells, pERK; 778 nM with H727 cells, pERK; 83 nM with MKN1 cells, pERK; 2630 nM with PSN1 cells, pERK.

With `CCc1c(F)ccc2cc(O)cc(N3CCc4c(nc(OC[C@@]56CCCN5C[C@H](F)C6)nc4N4CCOCC(CO)C4)C3)c12` (stereo partly drawn) [Example 65, 5-ethyl-6-fluoro-4-(2-(((2R,7aS)-2-fluorohexahydro-1H-pyrrolizin-7a-yl)methoxy)-4-(6-(hydroxymethyl)-1,4-oxazepan-4-yl)-5,6-dihydropyrido[3,4-d]pyrimidin-7(8H)-yl)naphthalen-2-ol], the results for the pIC50 at KRas^G12R, at KRas^G12D and at KRas^G12V were at least 8.70, 8.52 and at least 8.70, respectively. In addition, the IC50 in the assay with HCT116 cells, pERK is 1210 nM; in the assay with ASPC1 cells, pERK, 1290 nM; in the assay on H727 cells, pERK it was 739 nM; with MKN1 cells, pERK, 26 nM; in the assay on PSN1 cells, pERK, 4420 nM.

Take `O=C1CC2(CCCN(c3nc(OC[C@@]45CCCN4C[C@H](F)C5)nc4c3CCN(c3cc(O)cc5ccc(F)c(Cl)c35)C4)C2)N1` (stereo partly drawn) [Example 70, 6-(7-(8-chloro-7-fluoro-3-hydroxynaphthalen-1-yl)-2-(((2R,7aS)-2-fluorohexahydro-1H-pyrrolizin-7a-yl)methoxy)-5,6,7,8-tetrahydropyrido[3,4-d]pyrimidin-4-yl)-1,6-diazaspiro[3.5]nonan-2-one]: the pIC50 on KRas^G12R, on KRas^G12D and on KRas^G12V was at least 8.70 throughout. Also, the IC50 turned out to be 1490 nM in the assay with HCT116 cells, pERK; 705 nM in the assay on ASPC1 cells, pERK; 471 nM in the assay with H727 cells, pERK; 40 nM in the assay with MKN1 cells, pERK; 750 nM in the assay with PSN1 cells, pERK.

`CC1(O)COCCN(c2nc(OC[C@@]34CCCN3C[C@H](F)C4)nc3c2CCN(c2cc(O)cc4ccc(F)c(Cl)c24)C3)C1` (stereo partly drawn) [Example 74, 4-(7-(8-chloro-7-fluoro-3-hydroxynaphthalen-1-yl)-2-(((2R,7aS)-2-fluorohexahydro-1H-pyrrolizin-7a-yl)methoxy)-5,6,7,8-tetrahydropyrido[3,4-d]pyrimidin-4-yl)-6-methyl-1,4-oxazepan-6-ol]: the values for the pIC50 at KRas^G12R, on KRas^G12D and at KRas^G12V were 8.40, at least 8.70 and 8.52, respectively. Besides, the IC50 in the assay on HCT116 cells, pERK came out at 1450 nM; in the assay with ASPC1 cells, pERK, 253 nM; in the assay with H727 cells, pERK, 790 nM; with MKN1 cells, pERK it was 78 nM; in the assay with PSN1 cells, pERK it was 4050 nM.

As to `Nc1cc2n(n1)CCCN(c1nc(OC[C@@]34CCCN3C[C@H](F)C4)nc3c1CCN(c1cc(O)cc4ccc(F)c(Cl)c14)C3)C2` [Example 75, 4-(4-(2-amino-7,8-dihydro-4H-pyrazolo[1,5-a][1,4]diazepin-5(6H)-yl)-2-(((2R,7aS)-2-fluorohexahydro-1H-pyrrolizin-7a-yl)methoxy)-5,6-dihydropyrido[3,4-d]pyrimidin-7(8H)-yl)-5-chloro-6-fluoronaphthalen-2-ol], the pIC50 is at least 8.70 at KRas^G12R, at least 8.70 at KRas^G12D and 8.52 on KRas^G12V. For the same compound, the IC50 was 2160 nM with HCT116 cells, pERK; 128 nM in the assay on ASPC1 cells, pERK; 242 nM in the assay on H727 cells, pERK; 128 nM in the assay with MKN1 cells, pERK; at least 10000 nM with PSN1 cells, pERK.

Regarding `CCc1c(F)ccc2cc(O)cc(N3CCc4c(nc(OC[C@@]56CCCN5C[C@H](F)C6)nc4N4CCCc5ncccc5C4)C3)c12` [Example 180, 4-(4-(8,9-dihydro-5H-pyrido[3,2-c]azepin-6(7H)-yl)-2-(((2R,7aS)-2-fluorohexahydro-1H-pyrrolizin-7a-yl)methoxy)-5,6-dihydropyrido[3,4-d]pyrimidin-7(8H)-yl)-5-ethyl-6-fluoronaphthalen-2-ol], the pIC50 at KRas^G12R was 8.22; on KRas^G12D, 8.40; at KRas^G12V, 8.10. The IC50 in the assay on ASPC1 cells, pERK was 383 nM; with H460 cells, pERK it was 1560 nM; with H727 cells, pERK, 600 nM; in the assay on MKN1 cells, pERK, 462 nM; with PSN1 cells, pERK, at least 10000 nM.

For `CC1(O)COCCN(c2nc(OC[C@@]34CCCN3C[C@H](F)C4)nc3c2CCN(c2cc(O)cc4ccc(F)c(Br)c24)C3)C1` (stereo partly drawn) [Example 219, 4-(7-(8-bromo-7-fluoro-3-hydroxynaphthalen-1-yl)-2-(((2R,7aS)-2-fluorohexahydro-1H-pyrrolizin-7a-yl)methoxy)-5,6,7,8-tetrahydropyrido[3,4-d]pyrimidin-4-yl)-6-methyl-1,4-oxazepan-6-ol], the figures for the pIC50 on KRas^G12R, on KRas^G12D and at KRas^G12V were 8.40, 8.52 and 8.52, respectively. The IC50 came out at 448 nM with ASPC1 cells, pERK; 1020 nM in the assay with H460 cells, pERK; 1580 nM with H727 cells, pERK; 97 nM in the assay with MKN1 cells, pERK; 6120 nM with PSN1 cells, pERK.

Turning to `O=C1CC2(CCCN(c3nc(OC[C@@]45CCCN4C[C@H](F)C5)nc4c3CCN(c3cc(O)cc5ccc(F)c(Br)c35)C4)C2)N1` (stereo partly drawn) [Example 223, 6-(7-(8-bromo-7-fluoro-3-hydroxynaphthalen-1-yl)-2-(((2R,7aS)-2-fluorohexahydro-1H-pyrrolizin-7a-yl)methoxy)-5,6,7,8-tetrahydropyrido[3,4-d]pyrimidin-4-yl)-1,6-diazaspiro[3.5]nonan-2-one], the pIC50 at KRas^G12R, at KRas^G12D and at KRas^G12V was at least 8.70 throughout. Besides, the IC50 stood at 320 nM in the assay with ASPC1 cells, pERK; 325 nM in the assay on H460 cells, pERK; 234 nM in the assay on H727 cells, pERK; 19 nM in the assay with MKN1 cells, pERK; 607 nM in the assay on PSN1 cells, pERK.
